Laboratory results as given in US7390870B2, “Immune-enhancing peptides” (Posco, priority 2001, dated 2008).

Experiments:
[1] = system: monocytes; test: Effect of enzyme inhibitors on peptide-induced monocyte chemotaxis; format: cell-based, human; conditions: FIG. 10; for inhibition of MFYLPM-induced chemotaxis: 1 μM MFYLPM
Protocol: (§1) Chemotaxis assays of the peptide were performed using multiwell chambers (Neuroprobe Inc., Gaithersburg, Md.) (20). Briefly, the prepared isolated human monocytes were suspended in RPMI at a concentration of 1×10^6 cells/ml of serum-free RPMI, and 25 □ of the suspension were placed onto the upper well of a 96-well chemotaxis chamber that was separated by a […] filter with a 5 □ pore size (3 □ diameter pores not coated with polyvinylpyrrolidone for neutrophils) from peptides or an fMLF-containing lower well. After incubation for 2 hours (90 minutes for neutrophils) at 37° C., non-migrated cells were removed by scraping them out, and cells that migrated across the filter were dehydrated, fixed, and stained with hematoxylin (Sigma, St. Louis, Mo.). The stained cells in five randomly chosen high power fields (HPF) (400×) in that well were then counted (21). The numbers of migrated cells were determined by counting them in a high power field (400×). For a checkboard analysis, cells were re-suspended in RPMI containing various concentrations of the peptide just before transferring them to the upper wells as described before (22).
Monocytes were pretreated either with LY (LY294002, 50 μM), GFX (GF109203X, 5 μM), or PD (PD98059, 50 μM), or they remained untreated for the control After an incubation of the indicated periods (15 minutes for LY294002 and GF109203X, 60 minutes for PD98059), the cells were washed twice and used for chemotaxis assay. 25 □ of monocytes at 1×10^6 cells/ml were added to the upper wells and allowed to migrate for 2 hrs at 37° C. (humidified atmosphere; 5% CO2) toward each peptide (1 μM HFYLPM, 1 μM MFYLPM, or 10 nM HFYLPm) or medium. After fixing and staining of the membrane, the numbers of migrated cells were determined by counting them in a high power field (400×). The results are shown FIG. 10. The data are presented as means ±S.E. of three independent experiments each performed in duplicate. *P<0.01 versus medium treatment and †P<0.01 versus peptide treatment, respectively.

[2] = system: monocytes; test: Effect of PTX on peptide-induced chemotactic migration in monocytes; format: cell-based, human; conditions: FIG. 8, PTX preincubation 90 minutes
Protocol: as §1
Several extracellular signals including many chemoattractants activate phagocytic cells via pertussis toxin (PTX)-sensitive G-protein(s) (27-29). Therefore, the involvement of PTX-sensitive G-protein(s) on the peptide-induced monocyte activation was examined. Monocytes were preincubated with PTX (1 □/ml) or vehicle only for 90 minutes at 37° C. The cells were used for chemotaxis assay with HFYLPM (1 μM), MFYLPM (1 μM), HFYLPm (100 nM), and fMLF (100 nM). The numbers of migrated cells were determined by counting them in a high power field (400×). The results are illustrated in FIG. 8. The data of FIG. 8 are presented as means±S.E. of two independent experiments each performed in duplicate. *P<0.01 versus medium treatment and †P<0.01 versus peptide treatment, respectively.

[3] = LY294002 50 μM, GF109203X 5 μM, PD98059 50 μM, 10 nM HFYLPm
[4] = LY294002 50 μM, GF109203X 5 μM, PD98059 50 μM

Row | inhibition of HFYLPm-induced chemotaxis ([1]; PD98059 50 μM, 60 minutes pretreatment, 1 μM HFYLPM) | Compound | inhibition of HFYLPm-induced chemotaxis [1, 3] | inhibition of MFYLPM-induced chemotaxis [1, 4] | inhibition of HFYLPm-induced chemotaxis ([1]; LY294002 50 μM, GF109203X 5 μM, 15 minutes pretreatment, 1 μM HFYLPM) [%] | inhibition of HFYLPm-induced monocyte chemotaxis ([2]; HFYLPM 1 μM) | inhibition of HFYLPm-induced monocyte chemotaxis ([2]; HFYLPm 100 nM) | inhibition of MFYLPM-induced monocyte chemotaxis ([2]; MFYLPM 1 μM) | inhibition of fMLF-induced monocyte chemotaxis ([2]; fMLF 100 nM) | inhibition at 50 µM ([1]; Homo sapiens, Monocyte, LY294002 50 μM, GF109203X 5 μM, 15 minutes pretreatment, 1 μM HFYLPM) [%]
1 | almost complete inhibition | COc1cccc(-c2cc(=O)c3ccccc3o2)c1N [PD98059] | almost complete inhibition | almost complete inhibition |  |  |  |  |  | 
2 |  | CN(C)CCCn1cc(C2=C(c3c[nH]c4ccccc34)C(=O)NC2=O)c2ccccc21 [GF109203X] | no effect | no effect | ~50 |  |  |  |  | 
3 |  | pertussis toxin [PTX] |  |  |  | complete inhibition | complete inhibition | complete inhibition | completely blocked | 
4 |  | O=c1cc(N2CCOCC2)oc2c(-c3ccccc3)cccc12 [LY294002] | no effect | no effect |  |  |  |  |  | ~75
